Data as given in US6933321B2, “Antiandrogenic biphenyls” (Endorecherche, Inc., priority 2002, dated 2005).
Where two headings read alike, the source gives them in different places.

Columns and labels:
[1] = test system: ear sebaceous glands in the male hamster; experiment: Topical antiandrogenic activity, ear sebaceous glands model in the male hamster; format: in vivo, Golden Syrian hamster; conditions: Mesocricetus auratus, 336 h, topical on left pinna, area of sebaceous glands of left ear, read-out: Ear Area Inhibition. Vs Control (%); for inhibition in vivo at 0.01 mg: dose 10 μg daily for 14 days; for inhibition in vivo at 0.03 mg: dose 30 μg daily for 14 days
Excerpt: • Column 2 represent the daily dose for 14 days of tested compound dissolved in ten μl solution of acetone:ethanol:propylene Glycol (1:1:2; v:v:v) applied onto a region between the two cartilage ridges of the ventral surface of left pinna. • Column 3 represents the percentage of inhibition of the area of the sebaceous glands of the left ear of the treated animals versus the area of the sebaceous glands of the left ear of the control animals.
C—In vivo Assessment of Topical Antiandrogenic Activity
The antiandrogenic activity of compounds for topical use was determined using the ear sebaceous glands model in the male hamster.
Male Golden Syrian Hamsters (SYR) of 110-120 g were obtained from Harlan Sprague-Dawley (Madison, USA) and housed up to 2 per plastic cage in a temperature (22±3° C.) and light (12 h light/day, lights on at 7h15)-controlled environment. The hamsters were fed with Certified Rodent Diet 5002 (pellet) and had access to tap water ad libitum. The animals were acclimatized for at least five days prior to beginning the study. Animals were randomly assigned to groups of eight hamsters. One group of hamsters were castrated under isoflurane-induced anesthesia on the day of dosing initiation (SD 1) and used as control group.
To evaluate the antiandrogenic activity, the tested compounds were applied topically on the inner part of the left ear, once daily, for 14 days. […] For animals of the castrated and intact control groups, one ten-μL vehicle was applied onto the left ear. No solution was applied on the right ear.
On Study Day 15, the hamsters were euthanized by cervical dislocation under isoflurane anesthesia. The left and right ears were collected attached together by the head skin, flat fixed on a paper and then immersed in 10% neutral buffered formalin. Punctures making a circular hole of 6 mm were made on the flat fixed ear in the region where the solution has been applied. These punch-made specimens were collected from each ear. Using a scalpel blade, the collected 6 mm round ear specimens were cut in the middle between the two cartilage ridges. The two equal parts of the ear round specimens were embedded in paraffin. After processing the tissue, the two parts were vertically embedded parallel to each other in such a way that the flat 6 mm area was facing out. From each paraffin block, one section (5 μm thick) was cut and collected on a glass slide. Thus, each slide contained two elongated sections of 6 mm length. Slides were stained with hematoxylin and eosin.
Using the video camera and the lens number X5 of the light microscope, the resulting field appearing on the screen has a length of 0.953 mm. When the first 6 mm long section was examined from the left to the right, the first and second fields were ignored and the third and fourth fields were captured for analysis by the image analyzer. Each field has the length of 0.953 mm. With the help of the screen mouse, the sebaceous glands within the whole field length (0.953 mm) were marked. Also, an area having the length of the whole field and the height between stratum granulosum and the upper edge of the cartilage was drawn.
The total area of the sebaceous glands (μm^2) in each examined field was calculated by the Image Analyser. We also measured the total area, which has the length of 0.953 mm and the height between stratum granulosum and the cartilage. In addition, the percentage of the area occupied by the glands was obtained. Thus, for each ear, two sections were cut and two fields from each section were analyzed. The total of the four readings was averaged and the mean standard error of the mean was calculated by the image analyzer. The results were expressed in μm^2 as the total surface of glands per field and also as percentage of the area occupied by the glands in the tissue.

[2] = test system: Shionogi mouse mammary carcinoma cells; experiment: Antiandrogenic activity on DHT-stimulated Shionogi mouse mammary carcinoma cell number; format: cell-based; conditions: for A = Ki OH-Flu/Ki compound: ratio of Ki of hydroxyflutamide versus tested compound, higher values preferable
[3] = Mus musculus, read-out: Antiandrogenic activity IC50 (nM)
[4] = inhibition of DHT-stimulated Shionogi cell number
[5] = Mus musculus, inhibition of DHT-stimulated Shionogi cell number, 10-12 days, read-out: Antiandrogenic activity IC50

COc1ccc(-c2ccc(C#N)c(C(F)(F)F)c2)cc1F [EM-4057]
inhibition in vivo at 0.01 mg ([1]; topical): 64%
IC50 [2, 3]: 84 nM
A = Ki OH-Flu/Ki compound [2, 4]: 1.2

COc1ccc(-c2ccc(C#N)c(C(F)(F)F)c2)c(F)c1 [EM-4174]
inhibition in vivo at 0.01 mg ([1]; topical): 86%
IC50 [2, 3]: 77 nM
A = Ki OH-Flu/Ki compound [2, 4]: 2.1

COc1cc(F)ccc1-c1ccc(C#N)c(C(F)(F)F)c1 [EM-4068]
inhibition in vivo at 0.03 mg ([1]; topical): 15%
IC50 [2, 3]: 96 nM
A = Ki OH-Flu/Ki compound [2, 4]: 0.9

N#Cc1ccc(-c2c(F)cccc2F)cc1Cl [EM-4977, 3-chloro-2′,6′-difluoro-biphenyl-4-carbonitrile]
inhibition in vivo at 0.001 mg ([1]; topical, dose 1 μg daily for 14 days): 25.9%
inhibition in vivo at 0.003 mg ([1]; topical, dose 3 μg daily for 14 days): 48%
inhibition in vivo at 0.01 mg ([1]; topical): 73%
IC50 [2, 3]: 12.8 nM
A = Ki OH-Flu/Ki compound [2, 4]: 12

COc1ccc(-c2ccc(C#N)c(C(F)(F)F)c2)cc1Br [EM-4080]
inhibition in vivo at 0.03 mg ([1]; topical): 5%
IC50 [2, 5]: 102 nM
A = Ki OH-Flu/Ki compound [2, 4]: 0.6

N#Cc1ccc(-c2cccc(C(O)C(F)(F)F)c2)cc1C(F)(F)F (stereo not drawn) [EM-4265]
inhibition in vivo at 0.03 mg ([1]; topical): 0%
IC50 [2, 5]: 116 nM
A = Ki OH-Flu/Ki compound [2, 4]: 0.7

N#Cc1ccc(-c2c(F)cccc2F)cc1C(F)(F)F [EM-4004]
inhibition in vivo at 0.01 mg ([1]; topical): 60%
IC50 [2, 5]: > 500 nM
A = Ki OH-Flu/Ki compound [2, 4]: <0.2

N#Cc1ccc(-c2ccc(N)cc2)cc1C(F)(F)F [EM-4186]
inhibition in vivo at 0.03 mg ([1]; topical): 0%
IC50 [2, 5]: 118 nM
A = Ki OH-Flu/Ki compound [2, 4]: 1.2

N#Cc1ccc(-c2cc(F)ccc2F)cc1C(F)(F)F [EM-4046]
inhibition in vivo at 0.03 mg ([1]; topical): 5%
IC50 [2, 5]: > 500 nM
A = Ki OH-Flu/Ki compound [2, 4]: <0.2

N#Cc1ccc(-c2ccc(F)cc2C(=O)Nc2ccc(Cl)cc2)cc1C(F)(F)F [EM-4863]
inhibition in vivo at 0.03 mg [1]: 21%
IC50 ([2]; inhibition of DHT-stimulated Shionogi cell number, 10-12 days, read-out: Antiandrogenic activity IC50): 161 nM
A = Ki OH-Flu/Ki compound [2, 4]: 0.3

N#Cc1ccc(-c2c(F)cc(F)cc2C(F)(F)F)cc1C(F)(F)F [EM-5004]
IC50 [2, 5]: > 500 nM
A = Ki OH-Flu/Ki compound [2, 4]: <0.2

Cc1cc(C#N)c(Cl)cc1-c1ccc(F)cc1F [EM-5112]
IC50 [2, 3]: 97 nM
A = Ki OH-Flu/Ki compound [2, 4]: 1.1

N#Cc1ccc(-c2ccc(F)cc2C(=O)Nc2ccncc2)cc1C(F)(F)F [EM-5019]
IC50 [2, 5]: > 500 nM
A = Ki OH-Flu/Ki compound [2, 4]: <0.2

N#Cc1ccc(-c2c(F)cc(F)cc2F)cc1Cl [EM-4851]
IC50 [2, 5]: > 500 nM
A = Ki OH-Flu/Ki compound [2, 4]: <0.2

CN(C)CCN(C)C(=O)c1cc(F)ccc1-c1ccc(C#N)c(C(F)(F)F)c1 [EM-4980]
IC50 [2, 5]: > 500 nM
A = Ki OH-Flu/Ki compound [2, 4]: <0.2

N#Cc1ccc(-c2ccc(C#N)c(Cl)c2)cc1 [EM-4281]
IC50 [2, 5]: 145 nM
A = Ki OH-Flu/Ki compound [2, 4]: 0.6

N#Cc1ccc(-c2ccccc2C(F)(F)F)cc1C(F)(F)F [EM-4034]
IC50 [2, 5]: > 500 nM
A = Ki OH-Flu/Ki compound [2, 4]: <0.2

CNC(=O)c1cc(F)ccc1-c1ccc(C#N)c(C(F)(F)F)c1 [EM-4961]
IC50 [2, 5]: > 500 nM
A = Ki OH-Flu/Ki compound [2, 4]: <0.2

N#Cc1ccc(-c2ccc(F)cc2C(=O)Nc2ccc(F)cc2F)cc1C(F)(F)F [EM-5038]
IC50 [2, 5]: > 500 nM
A = Ki OH-Flu/Ki compound [2, 4]: <0.2

N#Cc1ccc(-c2ccc(C(N)=O)cc2)cc1C(F)(F)F [EM-3971]
IC50 [2, 5]: > 500 nM
A = Ki OH-Flu/Ki compound [2, 4]: <0.2

CSc1cc(C#N)ccc1-c1ccc(C#N)c(C(F)(F)F)c1 [EM-4227]
IC50 [2, 5]: 121 nM
A = Ki OH-Flu/Ki compound [2, 4]: 1.2
